According to publication PMC12537693, “3-Hydroxytyrosol as a phenolic cholinesterase inhibitor with antiamnesic activity: a multimethodological study of selected plant phenolics” (Frontiers in Pharmacology, 2025):

Each molecule was assayed on scopolamine-induced amnesic mice (assay: Passive avoidance test in scopolamine-induced amnesic mice). Details: 20 mg/kg i.p., scopolamine 1 mg/kg i.p. 30 min later; 24 h after scopolamine; cutoff 9 min.
Format: in vivo
With `O=C(O)c1cc(O)c(O)c(O)c1` [Gallic acid] the “Mean latency time (min) ± SEM (2nd day)” value was 6.76 ± 1.11 min.

Same assay, conditions: acquisition day, before treatment; group given 20 mg/kg i.p.; n = 8
`O=C(O)c1cc(O)c(O)c(O)c1` [Gallic acid] was tested, and the “Mean latency time (min) ± SEM (1st day)” value was 0.29 ± 0.03 min.

These molecules were tested against horse serum BChE (Equus caballus, UniProt P81908) (assay: biochemical). Details: at 10 mM, n = 3.
Sequence of horse serum BChE (P81908 whole entry): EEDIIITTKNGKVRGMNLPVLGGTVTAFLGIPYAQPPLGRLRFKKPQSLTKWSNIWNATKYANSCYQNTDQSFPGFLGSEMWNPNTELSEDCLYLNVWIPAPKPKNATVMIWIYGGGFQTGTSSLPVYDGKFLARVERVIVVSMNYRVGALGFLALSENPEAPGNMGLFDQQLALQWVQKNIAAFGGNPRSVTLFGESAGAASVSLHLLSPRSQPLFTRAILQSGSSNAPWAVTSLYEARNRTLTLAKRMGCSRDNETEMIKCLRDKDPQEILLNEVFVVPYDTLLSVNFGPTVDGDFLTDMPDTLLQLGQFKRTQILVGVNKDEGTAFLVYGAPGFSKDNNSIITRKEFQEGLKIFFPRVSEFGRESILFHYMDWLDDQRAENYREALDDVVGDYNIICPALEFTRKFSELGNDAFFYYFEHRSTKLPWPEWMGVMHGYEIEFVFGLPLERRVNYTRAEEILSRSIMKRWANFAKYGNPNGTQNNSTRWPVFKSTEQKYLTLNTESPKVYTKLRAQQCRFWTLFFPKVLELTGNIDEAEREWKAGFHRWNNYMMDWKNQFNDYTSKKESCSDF
Format: biochemical
In the case of `O=c1cc(-c2ccc(O)c(-c3c(O)cc(O)c4c(=O)cc(-c5ccc(O)cc5)oc34)c2)oc2cc(O)cc(O)c12` [Amentoflavone], the “Enzyme inhibition (% ± SD) at 10 mM, BChE” value (“Enzyme inhibition (% ± SD)” for short) is reported as “no inhibition”.
In the case of `O=c1oc2c(O)c(O)cc3c(=O)oc4c(O)c(O)cc1c4c23` [Ellagic acid], the “Enzyme inhibition (% ± SD)” value is reported as “no inhibition”.
`O=c1cc(-c2ccc(O)c(O)c2)oc2cc(O)cc(O)c12` [Luteolin] was tested, and the “Enzyme inhibition (% ± SD)” value was “no inhibition”.

Same assay, conditions: at 10 mM; ± SD, n = 3; read-out: Enzyme inhibition (% ± SD) at 10 mM, BChE
`O=c1cc(-c2ccc(O)c(-c3c(O)cc(O)c4c(=O)cc(-c5ccc(O)cc5)oc34)c2)oc2cc(O)cc(O)c12` [Amentoflavone] gave an inhibition at 10000 µM of less than 0%.
For `O=c1cc(-c2ccc(O)cc2)oc2cc(O)cc(O)c12` [Apigenin], the inhibition at 10000 µM was less than 0%.
`O=C(/C=C/c1ccc(O)c(O)c1)O[C@@H]1C[C@](O)(C(=O)O)C[C@@H](O)[C@H]1O` [Chlorogenic acid] gave an inhibition at 10000 µM of 25.4 ± 1.72%.
In the case of `O=c1oc2c(O)c(O)cc3c(=O)oc4c(O)c(O)cc1c4c23` [Ellagic acid], the inhibition at 10000 µM is reported as less than 0%.
Work on `O=c1c(O)c(-c2ccc(O)c(O)c2)oc2cc(O)ccc12` [Fisetin] yielded an inhibition at 10000 µM of 76.2 ± 2.48%.
With `O=C(O)c1cc(O)c(O)c(O)c1` [Gallic acid] the inhibition at 10000 µM was 84.4 ± 2.25%.
`O=c1c(-c2ccc(O)cc2)coc2cc(O)cc(O)c12` [Genistein] showed an inhibition at 10000 µM of less than 0%.
With `O=c1c(O)c(-c2ccc(O)cc2)oc2cc(O)cc(O)c12` [Kaempferol] the inhibition at 10000 µM was less than 0%.
Molecule `O=c1cc(-c2ccc(O)c(O)c2)oc2cc(O)cc(O)c12` [Luteolin] has an inhibition at 10000 µM of less than 0%.
Molecule `Oc1ccc(-c2[o+]c3cc(O)cc(O)c3cc2O)cc1` [Pelargonidin] has an inhibition at 10000 µM of 25.3 ± 4.13%.
Work on `O=c1c(O)c(-c2ccc(O)c(O)c2)oc2cc(O)cc(O)c12` [Quercetin] yielded an inhibition at 10000 µM of 99.4 ± 0.76%.
Work on `COc1cc(C(=O)O)ccc1O` [Vanillic acid] yielded an inhibition at 10000 µM of 35.1 ± 3.21%.

Same assay, conditions: ± SD, n = 3
Molecule `O=c1c(O)c(-c2ccc(O)c(O)c2)oc2cc(O)ccc12` [Fisetin] has an IC50 of 9.62 mM.
